# From publication PMC4641156, “Evaluation of a Novel Tc-99m Labelled Vitamin B12 Derivative for Targeting Escherichia coli and Staphylococcus aureus In Vitro and in an Experimental Foreign-Body Infection Model” (Molecular Imaging and Biology, 2015)
# How the values were obtained:
# [1] = Biodistribution after i.v. injection in tissue cage mouse model (organs, tissues, cages overall)
# Protocol: (§1) C57Bl/6 mice from in-house breeding or purchased from Charles River Laboratories GmbH (Sulzfeld, Germany) were housed in the Animal Facility of the Department of Biomedicine, University Hospital, Basel, Switzerland. Experiments were performed in accordance to the regulations of Swiss veterinary law. The Institutional Animal Care and Use Committee approved the study protocol. Drinking water and standard laboratory food pellets (CR) were provided ad libitum. To reduce interference of high vitamin B12 level in mice, animals randomized for Cbl biodistribution studies were fed with a vitamin B12-reduced diet (Provimi Kliba AG, Kaiseraugst, Switzerland) beginning at the age of 10 weeks. At the age of 12 weeks, one sterile polytetrafluoroethylene (Teflon) tube (32 × 10 mm), perforated by 130 regularly spaced holes of 1 mm diameter, was aseptically implanted into the back of each mouse, as previously described. Each cage was weighted and numbered before implantation. Two weeks after surgery, clips were removed from healed wounds, and sterility of the cage was confirmed by culture of aspirated cage fluid. On the following day, 5 × 10^5 CFU of E. coli or 5 × 10^6 CFU of S. aureus, resuspended in 200 μl of 0.9 % saline, were injected into cages. Sterile 0.9 % saline was injected in cages in animals used as negative controls.
# The two different experimental set-up of biodistribution were adapted to the known radiopharmaceutical binding/non-binding to plasma protein, persistence in organs and tissues and half-life of the labelling radioisotope.
# (§2) Accumulation of radiopharmaceuticals in cage fluids was measured by resuspending 100 μl of aspirated fluid in 1 ml PBS and counted in a gamma counter. The percentage of injected dose (% IDTCF/ml) was calculated as measured CPM normalized per 1 ml cage fluid and divided by the CPM0 (injected dose). For determination of radiopharmaceutical biodistribution, mice were sacrificed with an intraperitoneal injection of 50–80 μl saline solution of pentothal (100 mg/ml). Blood was collected by cardiac puncture, and mice were perfused with 0.9 % saline for around 5 min. Following, tissues were dissected, weighted and collected into test tubes for γ-counter (blood, heart, liver, spleen, stomach, kidneys, lungs, intestine, muscle, bone and cage). The percentage of injected dose (% IDtissue/g) was calculated as CPM associated to each organ divided by its weight in grams and by the CPM0.
# [2] = Distribution into sterile (non-infected) tissue cages and cage fluids; conditions: for Cage—sterile, mean % ID/g tissue ± SD: explanted sterile cage
# Protocol: as §1, §2
# E. coli-infected cages = assay: Distribution into E. coli-infected tissue cages and cage fluids; conditions: for Cage—E. coli, mean % ID/g tissue ± SD: explanted E. coli-infected cage
# Protocol: (§3) For in vivo studies, overnight cultures were prepared in 5 ml tryptic soy broth (TSB), incubated at 37 °C for 18–20 h. Bacterial suspensions were then washed three times, resuspended in 5 ml of sterile 0.9 % saline and diluted.
# as §1, §2
# S. aureus-infected cages = assay: Distribution into S. aureus-infected tissue cages and cage fluids; conditions: for Cage—S. aureus, mean % ID/g tissue ± SD: explanted S. aureus-infected cage
# Protocol: as §3, §1, §2
# [3] = system: S. aureus (ATCC 35556, methicillin susceptible); assay: In vitro binding of radiotracers to S. aureus (kinetics and competition with unlabeled Cbl); type: cell-based, Staphylococcus aureus
# Protocol: Laboratory strains E. coli (ATCC 25922) and S. aureus (ATCC 35556, methicillin susceptible) were used. Bacteria were stored at −70 °C using a cryovial bead preservation system (Microbank, Pro-Lab Diagnostics, Richmond Hill, ON, Canada). Single cryovial beads were cultured overnight on Columbia sheep blood agar plates (Becton Dickinson, Heidelberg, Germany). For in vitro binding studies, overnight cultures were prepared in snap-lid tubes from 2 to 3 CFU in 5 ml of a synthetic minimal medium depleted of vitamin B12. After 18–20 h of incubation at 37 °C and 200 rpm, the cultures were diluted 1:100 in the same medium and further incubated at 37 °C to mid-logarithmic phase in sealed tubes. […] Five hundred microlitres of resuspended cultures were transferred to Eppendorf tubes and used for the measurement of binding to viable bacteria at 37 °C. For testing binding at 4 °C, bacterial suspension in PBS were let to equilibrate for 1 h at 4 °C before adding the radiopharmaceuticals. […] The bacterial suspensions were then centrifuged, resuspended in PBS and used for further studies. […] Colony counts remained <10 CFU/ml. Five hundred microlitres of each radiopharmaceutical solution was added to the 500 μl of bacterial suspensions. Binding assays were performed in quadruplicate vials per testing conditions. Afterwards, vials were centrifuged for 5 min at 13,500 rpm and 4 °C, and pellets were washed with 500 μl of cooled PBS. Supernatants and resuspended pellets were counted in a multi-well NaI γ-counter (Cobra; Packard, USA) and the counts per minute (CPM) recorded. The percentage of radiolabeled Cbl in the pellets was calculated as the percentage of the CPMp/CPM0 ratio per log10 8.0 CFU/ml, where CPMp were the CPM associated to pellets and CPM0 were the total CPM of the radiolabeled Cbl added per vial.
# [4] = system: transcobalamin II (TC II); set-up: method as in PMID 12831983, PMID 18413759; conditions: cited from earlier work
# E. coli (ATCC 25922) = assay: In vitro binding of radiotracers to E. coli (kinetics and competition with unlabeled Cbl); type: cell-based, Escherichia coli
# Protocol: Laboratory strains E. coli (ATCC 25922) and S. aureus (ATCC 35556, methicillin susceptible) were used. Bacteria were stored at −70 °C using a cryovial bead preservation system (Microbank, Pro-Lab Diagnostics, Richmond Hill, ON, Canada). Single cryovial beads were cultured overnight on Columbia sheep blood agar plates (Becton Dickinson, Heidelberg, Germany). For in vitro binding studies, overnight cultures were prepared in snap-lid tubes from 2 to 3 CFU in 5 ml of a synthetic minimal medium depleted of vitamin B12. After 18–20 h of incubation at 37 °C and 200 rpm, the cultures were diluted 1:100 in the same medium and further incubated at 37 °C to mid-logarithmic phase in sealed tubes. […] Five hundred microlitres of resuspended cultures were transferred to Eppendorf tubes and used for the measurement of binding to viable bacteria at 37 °C. For testing binding at 4 °C, bacterial suspension in PBS were let to equilibrate for 1 h at 4 °C before adding the radiopharmaceuticals. […] Supernatants and resuspended pellets were counted in a multi-well NaI γ-counter (Cobra; Packard, USA) and the counts per minute (CPM) recorded. The percentage of radiolabeled Cbl in the pellets was calculated as the percentage of the CPMp/CPM0 ratio per log10 8.0 CFU/ml, where CPMp were the CPM associated to pellets and CPM0 were the total CPM of the radiolabeled Cbl added per vial.
# [5] = cage fluid, vs sterile controls
molecule,measurement,setting,value
O=C([O-])CN(CCN(CC(=O)[O-])CC(=O)[O-])CCN(CC(=O)[O-])CC(=O)[O-].[99Tc+4] [[^99mTc]DTPA],"Blood, mean % ID/g tissue ± SD",[1]; 30 min after i.v. injection,1.46 ± 1.10 % ID/g tissue
same,"Blood, mean % ID/g tissue ± SD",[1]; 4 h after i.v. injection,0.02 ± 0.10 % ID/g tissue
same,"Blood, mean % ID/g tissue ± SD",[1]; 24 h after i.v. injection,0.01 ± 0.00 % ID/g tissue
same,"Bone, mean % ID/g tissue ± SD",[1]; 30 min after i.v. injection,0.47 ± 0.30 % ID/g tissue
same,"Bone, mean % ID/g tissue ± SD",[1]; 4 h after i.v. injection,0.05 ± 1.50 % ID/g tissue
same,"Bone, mean % ID/g tissue ± SD",[1]; 24 h after i.v. injection,0.01 ± 0.00 % ID/g tissue
same,"Heart, mean % ID/g tissue ± SD",[1]; 4 h after i.v. injection,0.05 ± 0.00 % ID/g tissue
same,"Heart, mean % ID/g tissue ± SD",[1]; 24 h after i.v. injection,0.01 ± 0.00 % ID/g tissue
same,"Intestine, mean % ID/g tissue ± SD",[1]; 30 min after i.v. injection,0.90 ± 0.50 % ID/g tissue
same,"Intestine, mean % ID/g tissue ± SD",[1]; 4 h after i.v. injection,0.66 ± 0.20 % ID/g tissue
same,"Intestine, mean % ID/g tissue ± SD",[1]; 24 h after i.v. injection,0.02 ± 0.00 % ID/g tissue
same,"Kidneys, mean % ID/g tissue ± SD",[1]; 30 min after i.v. injection,3.92 ± 0.80 % ID/g tissue
same,"Kidneys, mean % ID/g tissue ± SD",[1]; 4 h after i.v. injection,0.93 ± 0.80 % ID/g tissue
same,"Kidneys, mean % ID/g tissue ± SD",[1]; 24 h after i.v. injection,0.15 ± 0.00 % ID/g tissue
same,"Liver, mean % ID/g tissue ± SD",[1]; 30 min after i.v. injection,0.33 ± 0.20 % ID/g tissue
same,"Liver, mean % ID/g tissue ± SD",[1]; 4 h after i.v. injection,0.09 ± 0.00 % ID/g tissue
same,"Liver, mean % ID/g tissue ± SD",[1]; 24 h after i.v. injection,0.02 ± 0.00 % ID/g tissue
same,"Lungs, mean % ID/g tissue ± SD",[1]; 30 min after i.v. injection,0.40 ± 0.20 % ID/g tissue
same,"Lungs, mean % ID/g tissue ± SD",[1]; 4 h after i.v. injection,0.06 ± 0.10 % ID/g tissue
same,"Lungs, mean % ID/g tissue ± SD",[1]; 24 h after i.v. injection,0.01 ± 0.00 % ID/g tissue
same,"Muscle, mean % ID/g tissue ± SD",[1]; 30 min after i.v. injection,0.34 ± 0.30 % ID/g tissue
same,"Muscle, mean % ID/g tissue ± SD",[1]; 4 h after i.v. injection,0.06 ± 1.10 % ID/g tissue
same,"Muscle, mean % ID/g tissue ± SD",[1]; 24 h after i.v. injection,0.00 ± 0.00 % ID/g tissue
same,"Spleen, mean % ID/g tissue ± SD",[1]; 30 min after i.v. injection,0.19 ± 0.00 % ID/g tissue
same,"Spleen, mean % ID/g tissue ± SD",[1]; 4 h after i.v. injection,0.06 ± 0.00 % ID/g tissue
same,"Spleen, mean % ID/g tissue ± SD",[1]; 24 h after i.v. injection,0.02 ± 0.00 % ID/g tissue
same,"Stomach, mean % ID/g tissue ± SD",[1]; 30 min after i.v. injection,1.67 ± 1.70 % ID/g tissue
same,"Stomach, mean % ID/g tissue ± SD",[1]; 4 h after i.v. injection,0.05 ± 1.10 % ID/g tissue
same,"Stomach, mean % ID/g tissue ± SD",[1]; 24 h after i.v. injection,0.02 ± 0.00 % ID/g tissue
same,"Cage—sterile, mean % ID/g tissue ± SD",[2]; 30 min after i.v. injection,2.88 ± 0.50 % ID/g tissue
same,"Cage—sterile, mean % ID/g tissue ± SD",[2]; 4 h after i.v. injection,0.34 ± 0.40 % ID/g tissue
same,"Cage—sterile, mean % ID/g tissue ± SD",[2]; 24 h after i.v. injection,0.01 ± 0.00 % ID/g tissue
same,"Cage—E. coli, mean % ID/g tissue ± SD",E. coli-infected cages; 4 h after i.v. injection,0.91 ± 0.15 % ID/g tissue
same,"Cage—E. coli, mean % ID/g tissue ± SD",E. coli-infected cages; 24 h after i.v. injection,0.15 ± 0.10 % ID/g tissue
same,"Cage—S. aureus, mean % ID/g tissue ± SD",S. aureus-infected cages; 4 h after i.v. injection,0.40 ± 0.10 % ID/g tissue
same,"Cage—S. aureus, mean % ID/g tissue ± SD",S. aureus-infected cages; 24 h after i.v. injection,0.05 ± 0.10 % ID/g tissue
[^99mTc]PAMA(4)-cyanocobalamin [[^99mTc]PAMA(4)-Cbl],Binding to killed S. aureus,[3]; ethanol-killed and/or heat-killed bacteria,no binding
same,"In vitro binding to S. aureus, fold lower than [57Co]Cbl",[3]; relative to [57Co]Cbl,3 fold
same,"Cage fluid/blood ratio, non-infected mice",[2]; 24 h p.i.,1.53 ± 0.30
same,Time p.i. at which cage fluid retention was significantly higher in E. coli-infected than control mice,E. coli-infected cages; [5],8 h
same,Time p.i. at which cage fluid % IDTCF/ml was significantly higher in S. aureus-infected than control mice,S. aureus-infected cages; [5],4 h
same,Binding to the major Cbl transport protein TC II,[4],abolished binding
cyanocobalamin [unlabeled Cbl],Cold Cbl excess sufficient to reduce maximal [57Co]Cbl binding to E. coli to 50 %,E. coli (ATCC 25922); 4 °C and ethanol-killed bacteria,10 fold
same,Concentration of unlabeled Cbl required to show inhibition of [57Co]Cbl binding to E. coli,"E. coli (ATCC 25922); 37 °C, viable bacteria, 1 h simultaneous incubation",1000 fold
same,Excess of unlabeled Cbl that decreased [99mTc]PAMA(4)-Cbl binding to S. aureus,"[3]; S. aureus, 3 h",1 fold
same,Excess of unlabeled Cbl that reduced [57Co]Cbl binding to S. aureus,"[3]; both 37 and 4 °C, 3 h",10 fold
"O=C([O-])CC(O)(CC(=O)[O-])C(=O)[O-].[67Ga+3] [[^67Ga]citrate, Gallium-67 citrate]","Blood, mean % ID/g tissue ± SD",[1]; 72 h after i.v. injection,0.46 ± 0.20 % ID/g tissue
same,"Bone, mean % ID/g tissue ± SD",[1]; 72 h after i.v. injection,10.99 ± 2.40 % ID/g tissue
same,Time to peak values in cages,[1]; cage fluids,≤ 12 h
same,"Heart, mean % ID/g tissue ± SD",[1]; 72 h after i.v. injection,1.26 ± 0.10 % ID/g tissue
same,"Intestine, mean % ID/g tissue ± SD",[1]; 72 h after i.v. injection,2.00 ± 0.40 % ID/g tissue
same,"Kidneys, mean % ID/g tissue ± SD",[1]; 72 h after i.v. injection,10.73 ± 1.30 % ID/g tissue
same,"Liver, mean % ID/g tissue ± SD",[1]; 72 h after i.v. injection,7.44 ± 0.90 % ID/g tissue
same,"Lungs, mean % ID/g tissue ± SD",[1]; 72 h after i.v. injection,2.11 ± 0.30 % ID/g tissue
same,"Muscle, mean % ID/g tissue ± SD",[1]; 72 h after i.v. injection,0.69 ± 0.20 % ID/g tissue
same,"Spleen, mean % ID/g tissue ± SD",[1]; 72 h after i.v. injection,6.09 ± 0.70 % ID/g tissue
same,"Stomach, mean % ID/g tissue ± SD",[1]; 72 h after i.v. injection,3.73 ± 1.50 % ID/g tissue
same,"Cage fluid/blood ratio, control (non-infected) mice",[2]; 72 h p.i.,1.14 ± 0.21
same,"Cage—sterile, mean % ID/g tissue ± SD",[2]; 72 h after i.v. injection,1.45 ± 0.50 % ID/g tissue
same,"Cage fluid/blood ratio, mice infected with E. coli",E. coli-infected cages; 72 h p.i.,5.41 ± 0.52
same,"Cage—E. coli, mean % ID/g tissue ± SD",E. coli-infected cages; 72 h after i.v. injection,3.99 ± 1.10 % ID/g tissue
same,"Cage fluid/blood ratio, mice infected with S. aureus",S. aureus-infected cages; 72 h p.i.,3.56 ± 0.87
same,"Cage—S. aureus, mean % ID/g tissue ± SD",S. aureus-infected cages; 72 h after i.v. injection,9.45 ± 2.30 % ID/g tissue
